Test results as given in patent US20230340011A1 (Asteroid Therapeutics, priority 2022, published 2023).

Key:
[1] = molecular target: SREBP-2 (Homo sapiens (Human), UniProt Q12772); test: In vitro assay SREBP-2: PathHunter U2OS SREBP-2 Nuclear Translocation Cell Line, U18666A-stimulated; format: cell-based; conditions: PathHunter U2OS SREBP-2 nuclear translocation cells, U18666A 10 μM, overnight (16 hours)
[2] = molecular target: LXRβ (Homo sapiens (Human), UniProt P55055); test: In vitro assay LXRβ: PathHunter NHR CHO cells, LXRβ / Steroid Receptor Co-activator Peptide enzyme fragment complementation; format: cell-based; conditions: PathHunter NHR CHO cells, full-length human LXRβ and SRCP, chemiluminescent signal; read-out: LXRβ PPI
LXRβ, sequence (P55055 whole entry, the tested form may be a part): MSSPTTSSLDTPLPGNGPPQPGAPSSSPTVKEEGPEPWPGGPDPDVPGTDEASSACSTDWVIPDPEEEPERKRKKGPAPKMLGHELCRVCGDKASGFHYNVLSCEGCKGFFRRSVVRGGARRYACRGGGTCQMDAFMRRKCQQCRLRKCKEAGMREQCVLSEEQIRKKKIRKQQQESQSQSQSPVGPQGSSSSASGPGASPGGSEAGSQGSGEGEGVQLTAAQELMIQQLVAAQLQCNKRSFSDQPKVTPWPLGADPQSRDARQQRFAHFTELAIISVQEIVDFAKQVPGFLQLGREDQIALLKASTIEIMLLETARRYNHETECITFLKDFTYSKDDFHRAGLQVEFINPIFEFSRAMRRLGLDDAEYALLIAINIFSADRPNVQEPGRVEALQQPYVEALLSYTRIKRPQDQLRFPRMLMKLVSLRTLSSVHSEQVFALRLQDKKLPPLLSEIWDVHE
Method in brief: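 Co-activator recruitment measured by chemiluminescence after signal generation. The CHO line carries full-length human LXRβ tagged with ProLink and an SRCP–enzyme acceptor fusion in the nucleus; cells sat overnight at 37° C before testing, in charcoal-dextran filtered serum medium with 1% final vehicle.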

Row | Structure (SMILES) | IC50 [1] [nM] | EC50 [2] [nM]
1 | CC(C)OC(=O)N1CCN(C(=O)CC[C@@H](C)[C@H]2CC[C@H]3[C@@H]4CC=C5C[C@@H](O)CC[C@]5(C)[C@H]4CC[C@]23C)[C@@H](C)C1 [Example 589, Isopropyl(S)-4-((R)-4-((3S,8S,9S,10R,13R,14S,17R)-3-hydroxy-10,13-dimethyl-2,3,4,7,8,9,10,11,12,13,14,15,16,17-tetradecahydro-1H-cyclopenta[a]phenanthren-17-yl)pentanoyl)-3-methylpiperazine-1-carboxylate] | < 250 | > 10000
2 | C[C@H](CCC(=O)N1CCN(C(=O)N(C)CC2CC2)[C@@H](C)C1)[C@H]1CC[C@H]2[C@@H]3CC=C4C[C@@H](O)CC[C@]4(C)[C@H]3CC[C@]12C [Example 636, (S)—N-(cyclopropylmethyl)-4-((R)-4-((3S,8S,9S,10R,13R,14S,17R)-3-hydroxy-10,13-dimethyl-2,3,4,7,8,9,10,11,12,13,14,15,16,17-tetradecahydro-1H-cyclopenta[a]phenanthren-17-yl)pentanoyl)-N,2-dimethylpiperazine-1-carboxamide] | < 250 | > 10000
3 | C[C@H](CCC(=O)N(c1ccncc1)C1CC1)[C@H]1CC[C@H]2[C@@H]3CC=C4C[C@@H](O)CC[C@]4(C)[C@H]3CC[C@]12C [Example 548, (4R)-4-[(1R,3aS,3bS,7S,9aR,9bS,11aR)-7-hydroxy-9a,11a-dimethyl-1H,2H,3H,3aH,3bH,4H,6H,7H,8H,9H,9aH,9bH,10H,11H,11aH-cyclopenta[a]phenanthren-1-yl]-N-cyclopropyl-N-(pyridin-4-yl)pentanamide] | < 250 | 250 to 1000
4 | CC(O)c1cccnc1CC[C@@H](C)[C@H]1CC[C@H]2[C@@H]3CC=C4C[C@@H](O)CC[C@]4(C)[C@H]3CC[C@]12C (stereo partly drawn) [Example 249, (3S,8S,9S,10R,13R,14S,17R)-17-((2R)-4-(3-(1-hydroxyethyl)pyridin-2-yl)butan-2-yl)-10,13-dimethyl-2,3,4,7,8,9,10,11,12,13,14,15,16,17-tetradecahydro-1H-cyclopenta[a]phenanthren-3-ol] | < 250 | < 250
5 | C[C@H](OC(=O)C(=O)N1CCCCC1)[C@H]1CC[C@H]2[C@@H]3CC=C4C[C@@H](O)CC[C@]4(C)[C@H]3CC[C@]12C [Example 199, (1S)-1-[(1S,3aS,3bS,7S,9aR,9bS,11aS)-7-hydroxy-9a,11a-dimethyl-1H,2H,3H,3aH,3bH,4H,6H,7H,8H,9H,9aH,9bH,10H,11H,11aH-cyclopenta[a]phenanthren-1-yl]ethyl2-oxo-2-(piperidin-1-yl)acetate] | < 250 | 250 to 1000
6 | CC(=O)NC1CCN(C(=O)CC[C@@H](C)[C@H]2CC[C@H]3[C@@H]4CC=C5C[C@@H](O)CC[C@]5(C)[C@H]4CC[C@]23C)CC1 [Example 320, N-(1-((R)-4-((3S,8S,9S,10R,13R,14S,17R)-3-hydroxy-10,13-dimethyl-2,3,4,7,8,9,10,11,12,13,14,15,16,17-tetradecahydro-1H-cyclopenta[a]phenanthren-17-yl)pentanoyl)piperidin-4-yl)acetamide] | < 250 | > 10000
7 | COC(=O)N1CCN(C(=O)CC[C@@H](C)[C@H]2CC[C@H]3[C@@H]4CC=C5C[C@](O)(C(F)(F)F)CC[C@]5(C)[C@H]4CC[C@]23C)CC1 [Example 285, methyl 4-((R)-4-((3S,8S,9S,10R,13R,14S,17R)-3-hydroxy-10,13-dimethyl-3-(trifluoromethyl)-2,3,4,7,8,9,10,11,12,13,14,15,16,17-tetradecahydro-1H-cyclopenta[a]phenanthren-17-yl)pentanoyl)piperazine-1-carboxylate] | 1000 to 10000 | > 10000
8 | C[C@H](CCC(=O)N1CCN(c2ccnn2C)[C@@H](C)C1)[C@H]1CC[C@H]2[C@@H]3CC=C4C[C@@H](O)CC[C@]4(C)[C@H]3CC[C@]12C [Example 608, (R)-4-((3S,8S,9S,10R,13R,14S,17R)-3-hydroxy-10,13-dimethyl-2,3,4,7,8,9,10,11,12,13,14,15,16,17-tetradecahydro-1H-cyclopenta[a]phenanthren-17-yl)-1-((S)-3-methyl-4-(1-methyl-1H-pyrazol-5-yl)piperazin-1-yl)pentan-1-one] | < 250 | > 10000
9 | C[C@H](CCC(=O)N1CCN(C(=O)N2CCCC2)C[C@@H]1C)[C@H]1CC[C@H]2[C@@H]3CC=C4C[C@@H](O)CC[C@]4(C)[C@H]3CC[C@]12C [Example 655, (R)-4-((3S,8S,9S,10R,13R,14S,17R)-3-hydroxy-10,13-dimethyl-2,3,4,7,8,9,10,11,12,13,14,15,16,17-tetradecahydro-1H-cyclopenta[a]phenanthren-17-yl)-1-((S)-2-methyl-4-(pyrrolidine-1-carbonyl)piperazin-1-yl)pentan-1-one] | < 250 | > 10000
10 | CCc1cccc(CC[C@@H](C)[C@H]2CC[C@H]3[C@@H]4CC=C5C[C@@H](O)CC[C@]5(C)[C@H]4CC[C@]23C)n1 [Example 167, (3S,8S,9S,10R,13R,14S,17R)-17-((R)-4-(6-ethylpyridin-2-yl)butan-2-yl)-10,13-dimethyl-2,3,4,7,8,9,10,11,12,13,14,15,16,17-tetradecahydro-1H-cyclopenta[a]phenanthren-3-ol] | 250 to 1000 | > 10000
11 | C[C@H](CCc1ncco1)[C@H]1CC[C@H]2[C@@H]3CC=C4C[C@@H](O)CC[C@]4(C)[C@H]3CC[C@]12C [Example 137, (3S,8S,9S,10R,13R,14S,17R)-10,13-dimethyl-17-((R)-4-(oxazol-2-yl)butan-2-yl)-2,3,4,7,8,9,10,11,12,13,14,15,16,17-tetradecahydro-1H-cyclopenta[a]phenanthren-3-ol] | 250 to 1000 | 1000 to 10000
12 | C[C@H](CCC(=O)N1CC2(C1)CC(C)(O)C2)[C@H]1CC[C@H]2[C@@H]3CC=C4C[C@@H](O)CC[C@]4(C)[C@H]3CC[C@]12C [Example 101, (R)-4-((3S,8S,9S,10R,13R,14S,17R)-3-hydroxy-10,13-dimethyl-2,3,4,7,8,9,10,11,12,13,14,15,16,17-tetradecahydro-1H-cyclopenta[a]phenanthren-17-yl)-1-(6-hydroxy-6-methyl-2-azaspiro[3.3]heptan-2-yl)pentan-1-one] | < 250 | > 10000
13 | C=CCN1C[C@@H]2CON(C(=O)CC[C@@H](C)[C@H]3CC[C@H]4[C@@H]5CC=C6C[C@@H](O)CC[C@]6(C)[C@H]5CC[C@]34C)[C@@H]2C1 [Example 46, (R)-1-((3aS,6aS)-5-allylhexahydro-1H-pyrrolo[3,4-c]isoxazol-1-yl)-4-((3S,8S,9S,10R,13R,14S,17R)-3-hydroxy-10,13-dimethyl-2,3,4,7,8,9,10,11,12,13,14,15,16,17-tetradecahydro-1H-cyclopenta[a]phenanthren-17-yl)pentan-1-one] | 250 to 1000 | > 10000
14 | C[C@H](CCC(=O)N1CCN(C(=O)c2cnccn2)C[C@@H]1C)[C@H]1CC[C@H]2[C@@H]3CC=C4C[C@@H](O)CC[C@]4(C)[C@H]3CC[C@]12C [Example 581, (R)-4-((3S,8S,9S,10R,13R,14S,17R)-3-hydroxy-10,13-dimethyl-2,3,4,7,8,9,10,11,12,13,14,15,16,17-tetradecahydro-1H-cyclopenta[a]phenanthren-17-yl)-1-((S)-2-methyl-4-(pyrazine-2-carbonyl)piperazin-1-yl)pentan-1-one] | < 250 | > 10000
15 | COc1ncnc(N2CCN(C(=O)CC[C@@H](C)[C@H]3CC[C@H]4[C@@H]5CC=C6C[C@@H](O)CC[C@]6(C)[C@H]5CC[C@]34C)CC2)c1OC [Example 618, (R)-1-(4-(5,6-dimethoxypyrimidin-4-yl)piperazin-1-yl)-4-((3S,8S,9S,10R,13R,14S,17R)-3-hydroxy-10,13-dimethyl-2,3,4,7,8,9,10,11,12,13,14,15,16,17-tetradecahydro-1H-cyclopenta[a]phenanthren-17-yl)pentan-1-one] | < 250 | > 10000
16 | C[C@H](CCC(=O)N1CCCC(C)(CO)CC1)[C@H]1CC[C@H]2[C@@H]3CC=C4C[C@@H](O)CC[C@]4(C)[C@H]3CC[C@]12C (stereo partly drawn) [Example 375, (4R)-4-((3S,8S,9S,10R,13R,14S,17R)-3-hydroxy-10,13-dimethyl-2,3,4,7,8,9,10,11,12,13,14,15,16,17-tetradecahydro-1H-cyclopenta[a]phenanthren-17-yl)-1-(4-(hydroxymethyl)-4-methylazepan-1-yl)pentan-1-one] | < 250 | > 10000
17 | COc1ccc2ccnc(N3CCN(C(=O)CC[C@@H](C)[C@H]4CC[C@H]5[C@@H]6CC=C7C[C@@H](O)CC[C@]7(C)[C@H]6CC[C@]45C)CC3)c2c1 [Example 627, (R)-4-((3S,8S,9S,10R,13R,14S,17R)-3-hydroxy-10,13-dimethyl-2,3,4,7,8,9,10,11,12,13,14,15,16,17-tetradecahydro-1H-cyclopenta[a]phenanthren-17-yl)-1-(4-(7-methoxyisoquinolin-1-yl)piperazin-1-yl)pentan-1-one] | < 250 | > 10000
18 | C[C@H](CCC(=O)N1CCN(c2ccnn2C)C[C@@H]1C)[C@H]1CC[C@H]2[C@@H]3CC=C4C[C@@H](O)CC[C@]4(C)[C@H]3CC[C@]12C [Example 609, (R)-4-((3S,8S,9S,10R,13R,14S,17R)-3-hydroxy-10,13-dimethyl-2,3,4,7,8,9,10,11,12,13,14,15,16,17-tetradecahydro-1H-cyclopenta[a]phenanthren-17-yl)-1-((S)-2-methyl-4-(1-methyl-1H-pyrazol-5-yl)piperazin-1-yl)pentan-1-one] | < 250 | > 10000
